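Exposure lasted 48 hours, with cells grown in 96-well plates and compounds tested at five concentrations. TGI marks complete inhibition of growth.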

The record followed here is PubChem BioAssay (NCI).

Some test systems named below: A498 renal; CCRF-CEM leukemia; DU-145 prostate; HCC-2998 colon; HCT-116 colon; HL-60(TB) leukemia; HOP-62 NSCLC; M14 melanoma; MALME-3M melanoma; MDA-MB-231 breast; MDA-MB-435; MDA-N; NCI-H460 lung; OVCAR-4 ovarian; SK-MEL-2 melanoma; SK-OV-3 ovarian; SN12C renal; SNB-75 CNS; SW-620 colon; TK-10 renal.
Common to all, as to experiment: NCI-60 cell line screen, 48 h

On to `CC(C)NC(=O)OCc1c(COC(=O)NC(C)C)c(-c2ccc[n+](COC(=O)CC(C)(C)C)c2)n2c1CCC2`, for which the TGI with A498 renal, in the experiment with CCRF-CEM leukemia, with DU-145 prostate, in the experiment with HCC-2998 colon, with HCT-116 colon and with HL-60(TB) leukemia was greater than 100 µM each time. Besides, the TGI in the experiment with HOP-62 NSCLC, with M14 melanoma, in the experiment with MALME-3M melanoma, in the experiment with MDA-MB-231 breast, with MDA-MB-435 and in the experiment on MDA-N was greater than 100 µM throughout. Besides, the TGI in the experiment on NCI-H460 lung, with OVCAR-4 ovarian, in the experiment on SK-MEL-2 melanoma, in the experiment on SK-OV-3 ovarian, with SN12C renal and in the experiment with SNB-75 CNS was greater than 100 µM in each case. Moreover, the TGI in the experiment with SW-620 colon and with TK-10 renal was greater than 100 µM throughout.

Take `Cc1[nH]c(=O)[nH]c(=S)c1C(=O)NC(C)(CO)CO`: the TGI with A498 renal, in the experiment with CCRF-CEM leukemia, in the experiment with DU-145 prostate, with HCC-2998 colon, in the experiment on HCT-116 colon and in the experiment on HL-60(TB) leukemia was greater than 100 µM in each case. Also, the TGI in the experiment on HOP-62 NSCLC, in the experiment on M14 melanoma, with MALME-3M melanoma, in the experiment with MDA-MB-231 breast, in the experiment on MDA-MB-435 and in the experiment with MDA-N was greater than 100 µM in each case. Also, the TGI in the experiment on NCI-H460 lung, with OVCAR-4 ovarian, in the experiment on SK-MEL-2 melanoma, with SK-OV-3 ovarian, in the experiment with SN12C renal and in the experiment on SNB-75 CNS was greater than 100 µM throughout. The TGI in the experiment on SW-620 colon and in the experiment with TK-10 renal was greater than 100 µM each time.

As to `Cc1ccc(S(=O)(=O)OC2C3OC(C)(C)OC3OC2C(c2cc(O)c3c(c2O)C(=O)c2ccccc2C3=O)c2cc(O)c3c(c2O)C(=O)c2ccccc2C3=O)cc1` (stereo not given), the TGI in the experiment on A498 renal, in the experiment on CCRF-CEM leukemia, with DU-145 prostate, in the experiment on HCC-2998 colon, in the experiment on HCT-116 colon and in the experiment on HL-60(TB) leukemia was greater than 10 µM in each case. The TGI with HOP-62 NSCLC, in the experiment with M14 melanoma, with MALME-3M melanoma, with MDA-MB-231 breast, in the experiment with MDA-MB-435 and with MDA-N was greater than 10 µM in each case. Besides, the TGI in the experiment with NCI-H460 lung, with OVCAR-4 ovarian, in the experiment with SK-MEL-2 melanoma, in the experiment on SK-OV-3 ovarian, in the experiment with SN12C renal and in the experiment with SNB-75 CNS was greater than 10 µM each time. Further, the TGI in the experiment with SW-620 colon and with TK-10 renal was greater than 10 µM in each case.

Turning to `COC12C=CC(CC1)C(C)(C)C2=O` (stereo not given), the TGI in the experiment on A498 renal, in the experiment with CCRF-CEM leukemia, in the experiment on DU-145 prostate, with HCC-2998 colon, in the experiment on HCT-116 colon and with HL-60(TB) leukemia was greater than 100 µM each time. The TGI in the experiment on HOP-62 NSCLC, in the experiment on M14 melanoma, in the experiment on MALME-3M melanoma, with MDA-MB-231 breast, in the experiment on MDA-MB-435 and in the experiment on MDA-N was greater than 100 µM in each case. The TGI in the experiment on NCI-H460 lung, in the experiment on OVCAR-4 ovarian, with SK-MEL-2 melanoma, in the experiment on SK-OV-3 ovarian, with SN12C renal and in the experiment on SNB-75 CNS was greater than 100 µM in each case. For the same compound, the TGI in the experiment on SW-620 colon and in the experiment with TK-10 renal was greater than 100 µM each time.

Take `C=C(C)[C@@H](C(=O)OC)N1C(=O)c2ccccc2C1=O`: the TGI with A498 renal, in the experiment on CCRF-CEM leukemia, with DU-145 prostate, with HCC-2998 colon, in the experiment on HCT-116 colon and in the experiment with HL-60(TB) leukemia was greater than 100 µM in each case. The TGI with HOP-62 NSCLC, in the experiment with M14 melanoma, in the experiment on MALME-3M melanoma, in the experiment with MDA-MB-231 breast, with MDA-MB-435 and in the experiment with MDA-N was greater than 100 µM each time. Besides, the TGI in the experiment on NCI-H460 lung, with OVCAR-4 ovarian, in the experiment with SK-MEL-2 melanoma, with SK-OV-3 ovarian, in the experiment on SN12C renal and with SNB-75 CNS was greater than 100 µM in each case. For the same compound, the TGI with SW-620 colon and in the experiment with TK-10 renal was greater than 100 µM in each case.

Turning to `Cc1cccc2c(N)c3cccc(C(=O)NCCCNCCN)c3nc12`, the TGI in the experiment with A498 renal was 30.1 µM; with CCRF-CEM leukemia, greater than 70.4 µM; with DU-145 prostate, 17.2 µM; with HCC-2998 colon it was 19.6 µM; in the experiment on HCT-116 colon, 25.9 µM; in the experiment on HL-60(TB) leukemia, greater than 64.3 µM. The TGI in the experiment with HOP-62 NSCLC was determined as 18.3 µM; in the experiment on M14 melanoma, 28.4 µM; in the experiment on MALME-3M melanoma, 19.9 µM; in the experiment with MDA-MB-231 breast, 12.9 µM; in the experiment with MDA-MB-435 it was 29.1 µM; in the experiment with MDA-N, 27 µM. Further, the TGI is 11.6 µM with NCI-H460 lung; 10.5 µM with OVCAR-4 ovarian; 34 µM with SK-MEL-2 melanoma; greater than 62.8 µM in the experiment with SK-OV-3 ovarian; 2.25 µM with SN12C renal; 8.1 µM with SNB-75 CNS. The TGI with SW-620 colon amounted to 33.3 µM; in the experiment on TK-10 renal, 51.7 µM.

Regarding `COC(=O)c1ccc2c(c1)CC1(C2)Cc2cc3c(cc2C1=O)CCC3` (stereo not given), the TGI was greater than 100 µM in the experiment on A498 renal; 52.7 µM in the experiment with CCRF-CEM leukemia; greater than 100 µM in the experiment on DU-145 prostate; greater than 100 µM in the experiment on HCC-2998 colon; greater than 100 µM in the experiment on HCT-116 colon; 39.8 µM in the experiment on HL-60(TB) leukemia. Moreover, the TGI in the experiment with HOP-62 NSCLC is greater than 100 µM; in the experiment with M14 melanoma, 42.2 µM; with MALME-3M melanoma, 82.8 µM; with MDA-MB-231 breast, greater than 100 µM; in the experiment with MDA-MB-435, 57.4 µM; in the experiment on MDA-N, 61.1 µM. For the same compound, the TGI is greater than 100 µM in the experiment with NCI-H460 lung; greater than 100 µM with OVCAR-4 ovarian; greater than 100 µM with SK-MEL-2 melanoma; greater than 100 µM in the experiment on SK-OV-3 ovarian; greater than 100 µM in the experiment with SN12C renal; 83.6 µM in the experiment on SNB-75 CNS. In addition, the TGI in the experiment on SW-620 colon and in the experiment with TK-10 renal was greater than 100 µM each time.

For the compound `CC(=O)NCc1nc(C#N)c(N)o1`, the TGI in the experiment on A498 renal, with CCRF-CEM leukemia, in the experiment on DU-145 prostate, in the experiment on HCC-2998 colon, with HCT-116 colon and with HL-60(TB) leukemia was greater than 100 µM each time. For the same compound, the TGI in the experiment with HOP-62 NSCLC, with M14 melanoma, in the experiment on MALME-3M melanoma, with MDA-MB-231 breast, with MDA-MB-435 and in the experiment with MDA-N was greater than 100 µM throughout. For the same compound, the TGI in the experiment on NCI-H460 lung, in the experiment with OVCAR-4 ovarian, in the experiment with SK-MEL-2 melanoma, in the experiment with SK-OV-3 ovarian, in the experiment with SN12C renal and in the experiment on SNB-75 CNS was greater than 100 µM each time. For the same compound, the TGI with SW-620 colon and in the experiment with TK-10 renal was greater than 100 µM each time.

Consider `CC[C@@H]1/C=C/C=C/C[C@H](C)[C@@H](O)[C@](C)(O)C(=O)[C@H](C)[C@@H](O)[C@H](C)C(=O)[C@H](C)[C@@H](O)[C@H](C)/C=C/C(=O)O[C@H]2[C@@H](C)[C@@H](CC1)O[C@]1(O[C@H](CC(C)O)[C@H](C)CC1=O)[C@@H]2C` (stereo not given in full), for which the TGI with A498 renal was 7.93 µM; with CCRF-CEM leukemia, greater than 16 µM; in the experiment on DU-145 prostate it was 8.78 µM; with HCC-2998 colon, 8 µM; in the experiment on HCT-116 colon, 6.26 µM; with HL-60(TB) leukemia, 11.4 µM. Besides, the TGI is 8.41 µM with HOP-62 NSCLC; 9.41 µM with M14 melanoma; 14.2 µM in the experiment with MALME-3M melanoma; 8.47 µM in the experiment with MDA-MB-231 breast; 10.6 µM in the experiment on MDA-MB-435; 10.7 µM in the experiment with MDA-N. In addition, the TGI with NCI-H460 lung was 6.85 µM; with OVCAR-4 ovarian, greater than 19.7 µM; with SK-MEL-2 melanoma, 9.61 µM; in the experiment on SK-OV-3 ovarian, greater than 19.2 µM; with SN12C renal, 8.72 µM; in the experiment on SNB-75 CNS it was greater than 25 µM. For the same compound, the TGI is greater than 25 µM with SW-620 colon and 17.9 µM in the experiment on TK-10 renal.

Turning to `O=C(CNc1ccc(Cl)cc1)Nn1c(-c2ccccc2)nc2ccccc2c1=O`, the TGI was 29.7 µM in the experiment on A498 renal; 9.48 µM in the experiment with CCRF-CEM leukemia; 28.5 µM with DU-145 prostate; 23.5 µM with HCC-2998 colon; 4.65 µM in the experiment with HCT-116 colon; 32.1 µM with HL-60(TB) leukemia. The TGI stood at 19.9 µM in the experiment on HOP-62 NSCLC; 20.3 µM in the experiment on M14 melanoma; 13.7 µM in the experiment on MALME-3M melanoma; 13.6 µM in the experiment with MDA-MB-231 breast; 23.2 µM with MDA-MB-435; 22.5 µM with MDA-N. Besides, the TGI with NCI-H460 lung is 23.4 µM; with OVCAR-4 ovarian, 27 µM; with SK-MEL-2 melanoma it was 30.4 µM; in the experiment with SK-OV-3 ovarian, 27.8 µM; with SN12C renal, 20.9 µM; in the experiment on SNB-75 CNS it was 24.1 µM. Besides, the TGI is 11.9 µM in the experiment with SW-620 colon and 30.5 µM in the experiment with TK-10 renal.

Take `O=P(c1ccccc1)(c1ccccc1)C(NCc1ccccc1)c1ccc(F)cc1` (stereo not given): the TGI in the experiment with A498 renal was 32 µM; in the experiment on CCRF-CEM leukemia, 48.6 µM; in the experiment with DU-145 prostate it was 45.2 µM; in the experiment with HCC-2998 colon, 29.6 µM; in the experiment with HCT-116 colon, 25.7 µM; with HL-60(TB) leukemia it was greater than 100 µM. The TGI in the experiment on HOP-62 NSCLC worked out at 42.6 µM; in the experiment on M14 melanoma it was 27.8 µM; with MALME-3M melanoma, 34.6 µM; in the experiment on MDA-MB-231 breast, 26.1 µM; in the experiment on MDA-MB-435 it was 23 µM; with MDA-N, 33.1 µM. For the same compound, the TGI stood at 26.7 µM in the experiment with NCI-H460 lung; 92.6 µM with OVCAR-4 ovarian; 29 µM in the experiment on SK-MEL-2 melanoma; 34.1 µM with SK-OV-3 ovarian; 36.6 µM with SN12C renal; 48.3 µM in the experiment on SNB-75 CNS. Also, the TGI stood at 35.5 µM in the experiment on SW-620 colon and 32 µM in the experiment with TK-10 renal.
